Test results reported in US8293796B2, “Modulator” (University College London, priority 2004, dated 2012).
Entries after “also recorded” stand apart in the source; their conditions may differ. Like-named read-outs stand apart in the source and are kept apart here.

Columns and labels:
[1] = biological target: T1, CB1 receptor (Mus musculus, UniProt P47746); test: vas deferens inhibition of contractions (cannabinoid receptor modulating activity)
T1 construct: from tissue; host or cells: mouse vas deferens (isolated tissue preparation)

[2] = system: wildtype mice; test: hypothermia and hypomotility (temperature and 5 minute motility in openfield activity chamber) in wildtype mice; assay type: in vivo, mouse
Method: Many CB1 agonists are known to induce psychotrophic associated “tetrad effects” due to central binding to CB receptors [Howlett, A. C. et al, International Union of Pharmacology. XXVII, Pharmacol. Rev. 2002, 54, 161-202]. Studies were undertaken to investigate whether the compounds of the present invention also bound to central CB1 receptors. This is assessed by measuring the ability of the compounds to induce sedation, ptosis, hypomotility, catalepsy and hypothermia in normal mice [Brooks, J. W. et al, Eur. J. Pharmacol. 2002, 439, 83-92], following i.v., i.p. and oral administration.
A CNS excluded compound provides a tool for examining if a component of a cannabinoid anti-spastic effect is mediated via peripheral CB receptors. […] As stated above there is no established role for peripheral cannabinoid receptors in the control of spasticity, however, spasticity is likely to be a product of nerve damage in the spinal cord, at least in EAE, [Baker, D. et al, FASEB J. 2001, 15, 300-302; Baker, D. et al, J. Neuroimmunol. 1990, 28, 261-270] and aberrant signals to and from the musculature are likely, at least in part to contribute to the muscle spasms occurring in spasticity.

[3] = system: CREAE mice; test: assessment of spasticity in CREAE mice (resistance to full flexion of hindlimbs against a strain gauge); assay type: in vivo, mouse
Method: Spasticity developed following the development of chronic EAE induced by injection of mouse spinal cord homogenate in Freund's complete adjuvant on day 0 & 7. This occurred 60-80 days post-induction in wildtype ABH.Cnr1+/+ mice and 30-40 days post-induction in CB1 receptor gene (Cnr1)-deficient ABH.Cnr1−/− mice). Spasticity was assessed by resistance to full flexion of hindlimbs against a strain gauge [Baker et al 2000], before and after treatment with either the full CB1/CB2 agonist CP55,940 or full CB1/CB2/“CB3” agonist injected intraperitoneally or compound (16) injected intravenously in vehicle (alcohol:cremophor:PBS (1:1:18)). […] Statistical analysis was performed on raw data and were analysed pairwise from baseline levels (*** P<0.001).
Further studies were undertaken using cannabinoid knockout mice, including CB1, CB2, VR-1, FAAH and conditional CB1 knockout mice. […] Spasticity is assessed (n=6-7/group) by resistance to hindlimb flexion using a strain gauge [Baker, D. et al, Nature 2000, 404, 84-87]. Animals serve as their own controls and will be analysed in a pairwise fashion. […] Low doses of CB1 agonists and CNS active CP55,940, as control, are locally (subcutaneous, intra-muscularly) administered into spastic ABH mice and the lack of activity in a contralateral limb analysed [Fox, A. et al, Pain 2001, 92, 91-100]. […]

T1 sequence (P47746 whole entry): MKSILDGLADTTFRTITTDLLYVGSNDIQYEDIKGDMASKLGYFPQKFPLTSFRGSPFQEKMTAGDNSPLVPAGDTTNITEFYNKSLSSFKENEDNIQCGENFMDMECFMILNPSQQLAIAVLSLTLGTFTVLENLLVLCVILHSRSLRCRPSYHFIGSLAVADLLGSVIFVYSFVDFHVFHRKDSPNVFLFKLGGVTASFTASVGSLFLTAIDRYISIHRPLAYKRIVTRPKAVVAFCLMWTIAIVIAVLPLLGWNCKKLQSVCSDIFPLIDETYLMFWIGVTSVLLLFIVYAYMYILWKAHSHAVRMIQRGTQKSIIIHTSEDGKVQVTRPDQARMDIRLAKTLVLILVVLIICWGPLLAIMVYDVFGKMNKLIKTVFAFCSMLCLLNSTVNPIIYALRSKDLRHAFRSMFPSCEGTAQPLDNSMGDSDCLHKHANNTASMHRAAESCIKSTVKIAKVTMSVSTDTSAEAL

SMILES	effect of CB1 antagonist SR141716A on the compound's effect in vas deferens ([1]; in presence of SR141716A)	IC50 ([1]; mouse vas deferens preparation, FIG. 1, read-out: IC50, vas deferens preparation) [pM]	IC50 ([1]; rat vas deferens, FIG. 1 legend, read-out: IC50, inhibition of contractions) [pM]	CNS effects: hypothermia and hypomotility ([2]; wildtype mice, 20 mg/kg i.v.)	CNS effects: hypothermia and hypomotility ([2]; wildtype/normal mice, 1 mg/kg, 20 min after injection, 1 mg/kg)	anti-spastic activity ([3]; administered in PBS alone (not shown))	anti-spastic activity ([3]; wildtype ABH mice with CREAE, injected intravenously in alcohol:cremophor:PBS (1:1:18), 10 minutes after administration)	CNS effects: temperature and motility ([2]; wildtype mice, 20 min after injection, dose not given)
CC(CO)NC(=O)c1cccc(/C=C\CCCC(=O)N(C)C)c1 (racemic) [Compound 16, 3-(5-Dimethylcarbamoyl-pent-1-enyl)-N-(2-hydroxy-1-methyl-ethyl)benzamide]	neutralised by the CB1-antagonist SR141716A; also recorded: inhibited by the selective CB1 antagonist SR141716A	~1000	~100	inactive	inactive; also recorded: no hypothermia or hypomotility was observed	active	significant anti-spastic activity; also recorded: marked effect on spasticity; also recorded: selective inhibition of spasticity without producing CNS effects	
Cc1c(C(=O)c2cccc3ccccc23)c2cccc3c2n1[C@H](CN1CCOCC1)CO3 [R(+)WIN55,212, reference compound]								induced typical cannabinmimetic effects
